Results: patent US10183950B2, “Thienopyrimidine inhibitors of atypical protein kinase C” (Cancer Research Technology Limited, priority 2011, dated 2019)
pIC50: −log10 of the molar value.

Target: T1, full-length human PKCι (Homo sapiens, UniProt P41743)
T1 construct: Recombinant, full-length human PKCι expressed in Sf21 insect cells is also commercially available; purchased; host or cells: Sf21 insect cells
T1 sequence (P41743 1-596): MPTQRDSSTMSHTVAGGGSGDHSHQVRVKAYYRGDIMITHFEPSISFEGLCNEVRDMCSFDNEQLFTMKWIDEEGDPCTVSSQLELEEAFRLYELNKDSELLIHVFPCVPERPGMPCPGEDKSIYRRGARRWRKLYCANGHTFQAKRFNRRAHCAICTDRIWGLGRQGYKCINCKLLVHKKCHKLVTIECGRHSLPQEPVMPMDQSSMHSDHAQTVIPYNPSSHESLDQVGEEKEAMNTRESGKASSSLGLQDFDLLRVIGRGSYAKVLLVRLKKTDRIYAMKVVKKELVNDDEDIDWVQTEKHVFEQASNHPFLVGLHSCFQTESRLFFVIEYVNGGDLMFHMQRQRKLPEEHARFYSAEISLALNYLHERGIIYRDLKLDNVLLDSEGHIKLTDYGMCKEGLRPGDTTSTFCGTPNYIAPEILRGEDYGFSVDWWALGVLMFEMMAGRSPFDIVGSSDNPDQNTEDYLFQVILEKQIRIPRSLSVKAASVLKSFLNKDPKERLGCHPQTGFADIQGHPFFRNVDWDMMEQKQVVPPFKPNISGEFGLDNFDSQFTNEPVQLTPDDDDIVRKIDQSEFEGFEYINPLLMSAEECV
Assay: PKCι IC50 IMAP fluorescence polarisation assay, full-length enzyme
Format: biochemical
Conditions: full length PKCi at 15 μM ATP; read-out: IC50 in IMAP assay against full length PKCi

SMILES | pIC50
N[C@H](CNc1nc(-c2ccncc2)nc2c(Br)csc12)CC1CCCCC1 [compound 348, (S)-N*1*-(7-Bromo-2-pyridin-4-yl-thieno[3,2-d]pyrimidin-4-yl)-3-cyclohexyl-propane-1,2-diamine] | 6.00 to 7.00
N[C@H](CNc1nc(-c2ccncc2F)nc2c(-c3ccccc3)csc12)Cc1ccccc1 [compound 434, (S)-N*1*-[2-(3-Fluoro-pyridin-4-yl)-7-phenyl-thieno[3,2-d]pyrimidin-4-yl]-3-phenyl-propane-1,2-diamine] | 5.00 to 6.00
CC(C)C[C@H](N)CNc1nc(-c2ccncc2)nc2c(Br)csc12 [compound 346, (S)-N*1*-(7-Bromo-2-pyridin-4-yl-thieno[3,2-d]pyrimidin-4-yl)-4-methyl-pentane-1,2-diamine] | 5.00 to 6.00
Cc1noc(C)c1-c1csc2c(NCC(N)Cc3ccccc3)nc(-c3ccncc3F)nc12 (stereo in doubt) [compound 428, (R)-N*1*-[7-(3,5-Dimethyl-isoxazol-4-yl)-2-(3-fluoro-pyridin-4-yl)-thieno[3,2-d]pyrimidin-4-yl]-3-phenyl-propane-1,2-diamine] | 5.00 to 6.00
c1cc(-c2nc(N[C@@H]3CCCNC3)c3sccc3n2)ccn1 [compound 316, (R)-Piperidin-3-yl-(2-pyridin-4-yl-thieno[3,2-d]pyrimidin-4-yl)-amine] | 5.00 to 6.00
C[C@H](N)CNc1nc(-c2ccncc2)nc2c(Br)csc12 [compound 305, (S)—N*1*-(7-Bromo-2-pyridin-4-yl-thieno[3,2-d]pyrimidin-4-yl)-propane-1,2-diamine] | 6.00 to 7.00
CC(C)(C)[Si](C)(C)C#Cc1csc2c(NC[C@@H](N)Cc3ccccc3)nc(-c3ccncc3)nc12 [compound 399, (S)-N*1*-{7-[(tert-Butyl-dimethyl-silanyl)-ethynyl]-2-pyridin-4-yl-thieno[3,2-d]pyrimidin-4-yl}-3-phenyl-propane-1,2-diamine] | 5.00 to 6.00

Now from value to molecule:

pIC50 | SMILES
4.40 to 5.00 | O=C(Nc1csc2c(N[C@@H]3CCNC3)nc(-c3ccncc3)nc12)C1CCCCC1 [compound 473, Cyclohexanecarboxylic acid [2-pyridin-4-yl-4-((R)-pyrrolidin-3-ylamino)-thieno[3,2-d]pyrimidin-7-yl]-amide]
5.00 to 6.00 | CC(C)Nc1cc(-c2nc(N[C@@H]3CCNC3)c3sccc3n2)ccn1 [compound 626, [2-(2-Isopropylamino-pyridin-4-yl)-thieno[3,2-d]pyrimidin-4-yl]-(R)-pyrrolidin-3-yl-amine]
4.40 to 5.00 | COc1cccc(OC(C)C)c1-c1c(C)sc2c(NC[C@@H](N)Cc3ccccc3)nc(-c3ccncc3)nc12 [compound 440, (S)-N*1*-[7-(2-Isopropoxy-6-methoxy-phenyl)-6-methyl-2-pyridin-4-yl-thieno[3,2-d]pyrimidin-4-yl]-3-phenyl-propane-1,2-diamine]
5.00 to 6.00 | CNc1ccc(-c2c(C(C)(C)C)sc3c(NC[C@@H](N)Cc4ccccc4)nc(-c4ccncc4)nc23)cc1 [compound 448, (S)-N*1*-[6-tert-Butyl-7-(4-methylamino-phenyl)-2-pyridin-4-yl-thieno[3,2-d]pyrimidin-4-yl]-3-phenyl-propane-1,2-diamine]
6.00 to 7.00 | O=C(Nc1ccccc1)Nc1cc(-c2nc(N[C@@H]3CCNC3)c3sccc3n2)ccn1 [compound 575, 1-Phenyl-3-{4-[4-((R)-pyrrolidin-3-ylamino)-thieno[3,2-d]pyrimidin-2-yl]-pyridin-2-yl}-urea]
6.00 to 7.00 | CN1CCN(c2ccc(C(=O)Nc3cc(-c4nc(N[C@@H]5CCNC5)c5sccc5n4)ccn3)cc2)CC1 [compound 620, 4-(4-Methyl-piperazin-1-yl)-N-{4-[4-((R)-pyrrolidin-3-ylamino)-thieno[3,2-d]pyrimidin-2-yl]-pyridin-2-yl}-benzamide]
5.00 to 6.00 | CC(C)(C)C#Cc1csc2c(NC[C@@H](N)Cc3ccccc3)nc(-c3ccncc3)nc12 [compound 511, (S)-N*1*-[7-(3,3-Dimethyl-but-1-ynyl)-2-pyridin-4-yl-thieno[3,2-d]pyrimidin-4-yl]-3-phenyl-propane-1,2-diamine]
4.40 to 5.00 | Cc1sc2c(NC[C@@H](N)Cc3ccccc3)nc(-c3ccncc3)nc2c1-c1c(Cl)cccc1C(F)(F)F [compound 452, (S)-N*1*-[7-(2-Chloro-6-trifluoromethyl-phenyl)-6-methyl-2-pyridin-4-yl-thieno[3,2-d]pyrimidin-4-yl]-3-phenyl-propane-1,2-diamine]
6.00 to 7.00 | N[C@H](CNc1nc(-c2ccncc2)nc2c(Nc3ccccc3)csc12)Cc1ccccc1 [compound 485, N*4*-((S)-2-Amino-3-phenyl-propyl)-N*7*-phenyl-2-pyridin-4-yl-thieno[3,2-d]pyrimidine-4,7-diamine]
4.40 to 5.00 | COc1ccncc1-c1c(C)sc2c(NC[C@@H](N)Cc3ccccc3)nc(-c3ccncc3)nc12 [compound 439, (S)-N*1*-[7-(4-Methoxy-pyridin-3-yl)-6-methyl-2-pyridin-4-yl-thieno[3,2-d]pyrimidin-4-yl]-3-phenyl-propane-1,2-diamine]
> 7.00 | N[C@H](CNc1nc(-c2ccncc2)nc2c(C#CC3CC3)csc12)Cc1ccccc1 [compound 512, (S)-N*1*-(7-Cyclopropylethynyl-2-pyridin-4-yl-thieno[3,2-d]pyrimidin-4-yl)-3-phenyl-propane-1,2-diamine]
4.40 to 5.00 | Fc1cnccc1-c1nc(N[C@@H]2CCNC2)c2scc(Nc3cccnc3)c2n1 [compound 494, 2-(3-Fluoro-pyridin-4-yl)-N*7*-pyridin-3-yl-N*4*- (R)-pyrrolidin-3-yl-thieno[3,2-d]pyrimidine-4,7-diamine]
6.00 to 7.00 | O=C(Nc1cc(-c2nc(N[C@@H]3CCNC3)c3sccc3n2)ccn1)c1cccs1 [compound 595, Thiophene-2-carboxylic acid {4-[4-((R)-pyrrolidin-3-ylamino)-thieno[3,2-d]pyrimidin-2-yl]-pyridin-2-yl}-amide]
6.00 to 7.00 | C[C@H](O)C#Cc1csc2c(NC[C@@H](N)Cc3ccccc3)nc(-c3ccncc3F)nc12 [compound 508, (S)-4-[4-((S)-2-Amino-3-phenyl-propylamino)-2-(3-fluoro-pyridin-4-yl)-thieno[3,2-d]pyrimidin-7-yl]-but-3-yn-2-ol]
6.00 to 7.00 | N[C@H](CNc1nc(-c2ccncc2)nc2c(-n3ccnn3)csc12)Cc1ccccc1 [compound 562, (S)-3-Phenyl-N*1*-(2-pyridin-4-yl-7-[1,2,3]triazol-1-yl-thieno[3,2-d]pyrimidin-4-yl)-propane-1,2-diamine]
6.00 to 7.00 | N[C@H](CNc1nc(-c2ccncc2)nc2c(C(=O)NC3CC3)csc12)Cc1ccccc1 [compound 556, 4-((S)-2-Amino-3-phenyl-propylamino)-2-pyridin-4-yl-thieno[3,2-d]pyrimidine-7-carboxylic acid cyclopropylamide]
5.00 to 6.00 | CCc1cc(-c2csc3c(NC[C@@H](N)Cc4ccccc4)nc(-c4ccncc4)nc23)no1 [compound 570, (S)-N*1*-[7-(5-Ethyl-isoxazol-3-yl)-2-pyridin-4-yl-thieno[3,2-d]pyrimidin-4-yl]-3-phenyl-propane-1,2-diamine]
6.00 to 7.00 | N[C@H](CNc1nc(-c2ccncc2)nc2c(C#Cc3ccccn3)csc12)Cc1ccccc1 [compound 529, (S)-3-Phenyl-N*1*-(2-pyridin-4-yl-7-pyridin-2-ylethynyl-thieno[3,2-d]pyrimidin-4-yl)-propane-1,2-diamine]

Same assay, conditions: full length PKCi at 15 μM ATP; read-out: IC50 in IMAP assay against full length PKCi (Activity)

pIC50 | SMILES
6.00 to 7.00 | N[C@H](CNc1nc(-c2ccncc2)nc2sc3c(c12)CCSC3)Cc1ccccc1 [compound 80, (S)-3-Phenyl-N*1*-(2-pyridin-4-yl-5,8-dihydro-6H-thiopyrano[4′,3′:4,5]thieno[2,3-d]pyrimidin-4-yl)-propane-1,2-diamine]
6.00 to 7.00 | NCCNc1nc(-c2ccncc2)nc2sc3c(c12)CCCC3 [compound 12, N*1*-(2-pyridin-4-yl-5,6,7,8-tetrahydro-benzo[4,5]thieno[2,3-d]pyrimidin-4-yl)-ethane-1,2-diamine]
4.40 to 5.00 | C[C@H](N)CNc1nc(-c2ccncc2)nc2sc3c(c12)CCN(C(=O)OC(C)(C)C)C3 [compound 96, 4-((S)-2-Amino-propylamino)-2-pyridin-4-yl-5,8-dihydro-6H-pyrido[4′,3′:4,5]thieno[2,3-d]pyrimidine-7-carboxylic acid tert-butyl ester]
5.00 to 6.00 | c1ccc(C[C@H]2CN(c3nc(-c4cn[nH]c4)nc4sc5c(c34)CCCC5)CCN2)cc1 [compound 196, 4-((S)-3-Benzyl-piperazin-1-yl)-2-(1H-pyrazol-4-yl)-5,6,7,8-tetrahydro-benzo[4,5]thieno[2,3-d]pyrimidine]
5.00 to 6.00 | CC1(C)CCc2c(sc3nc(-c4ccncc4)nc(NCCN)c23)C1 [compound 43, N*1*-(7,7-Dimethyl-2-pyridin-4-yl-5,6,7,8-tetrahydro-benzo[4,5]thieno[2,3-d]pyrimidin-4-yl)-ethane-1,2-diamine]
5.00 to 6.00 | NCCNc1nc(-c2ccncc2)nc2sc3c(c12)CCSC3 [compound 44, N*1*-(2-Pyridin-4-yl-5,8-dihydro-6H-thio-pyrano[4′,3′:4,5]thieno[2,3-d]pyrimidin-4-yl)-ethane-1,2-diamine]
